Results published in US5459148A, “Biphenyl derivatives and their use for the treatment of hypertension and cardiac disease” (Sankyo Company, Limited, priority 1992, dated 1995).

These compounds were tested against T1, AII receptor (Rattus norvegicus, UniProt P25095) (assay: Inhibition of pressor response to intravenous angiotensin II (AII receptor blocking activity)). Conditions: 2 min, read-out: ID50 (dose required to inhibit the pressor response to intravenous angiotensin II by fifty percent).
T1 construct: from tissue; host or cells: whole anesthetized male Wister-Imamichi rat (in vivo, blood pressure in the femoral artery)
T1 sequence (P25095 1-359): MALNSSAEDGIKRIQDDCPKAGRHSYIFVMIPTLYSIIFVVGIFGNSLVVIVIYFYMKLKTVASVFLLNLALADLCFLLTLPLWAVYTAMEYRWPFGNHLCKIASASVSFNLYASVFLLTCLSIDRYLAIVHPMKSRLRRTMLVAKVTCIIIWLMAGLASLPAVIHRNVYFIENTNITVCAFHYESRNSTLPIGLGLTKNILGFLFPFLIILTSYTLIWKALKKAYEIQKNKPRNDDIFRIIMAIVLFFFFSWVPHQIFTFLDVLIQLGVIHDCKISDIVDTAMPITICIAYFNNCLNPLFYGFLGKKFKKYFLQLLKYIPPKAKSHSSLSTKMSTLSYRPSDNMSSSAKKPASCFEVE
Type: in vivo, rat (male Wister-Imamichi)
Method: Evaluation of AII receptor blocking activity by Inhibition of pressor response to angiotensin II
The biological activity of each compound was assessed by determining the dose required to inhibit the pressor response to intravenous angiotensin II by fifty percent (ID50) in rats. Male Wister-Imamichi rats, each weighing 300 to 400 g, were anesthesized by intraperitoneal injection of 100 mg/Kg of sodium thiobutabarbital [Inactin (trade name)] and two cannulae were inserted: one into the femoral artery for measuring blood pressure and the other into the femoral vein for injecting drugs. […] The percent inhibitions of the pressor response to angiotensin II by progressive increase of the test compound was used to calculate the value of ID50. Angiotensin II was used in this test dissolved in 0.5% bovine serum albumin (BSA) and the test compounds were dissolved in 100% dimethyl sulfoxide (DMSO).

ED50 [mg/kg] | Structure (SMILES)
0.0065 | CCCc1nc(C(C)(C)O)c(C(=O)O)n1Cc1ccc(-c2ccccc2C(=O)C(=O)O)cc1 [Example 1, 4-(1-Hydroxy-1-methylethyl)-1-[(2'-oxalobiphenyl-4-yl)methyl]-2-propylimidazole-5-carboxylic acid]
0.026 | CCCCc1nc(C(C)(C)O)c(C(=O)O)n1Cc1ccc(-c2ccccc2C(=O)C(=O)O)cc1 [Example 2, 2-Butyl-4-(1-hydroxy-1-methylethyl)-1-[(2'-oxalobiphenyl-4-yl)methyl]imidazole-5-carboxylic acid]
0.02 | CCCc1nc(CO)c(C(=O)O)n1Cc1ccc(-c2ccccc2C(=O)C(=O)O)cc1 [Example 6, 4-Hydroxymethyl-1-[(2'-oxalobiphenyl-4-yl)methyl]-2-propylimidazole-5-carboxylic acid]
0.021 | CCCc1nc(C(C)(C)O)c(-c2nnn[nH]2)n1Cc1ccc(-c2ccccc2C(=O)C(=O)O)cc1 [Example 7, {4'-[4-(1-Hydroxy-1-methylethyl)-2-propyl-5-(tetrazol-5-yl)imidazol-1-ylmethyl]biphenyl-2-yl}glyoxylic acid]
0.06 | C=C(C)c1nc(CCC)n(Cc2ccc(-c3ccccc3C(=O)C(=O)O)cc2)c1C(=O)O [Example 8, 4-Isopropenyl-1-[(2'-oxalobiphenyl-4-yl)methyl]-2-propylimidazole-5-carboxylic acid]
0.053 | CCCc1nc(C(C)C)c(C(=O)O)n1Cc1ccc(-c2ccccc2C(=O)C(=O)O)cc1 [Example 9, 4-Isopropyl-1-[(2'-oxalobiphenyl-4-yl)methyl]-2-propylimidazole-5-carboxylic acid]
0.022 | CCCc1nc(C(O)C(C)C)c(C(N)=O)n1Cc1ccc(-c2ccccc2C(=O)C(=O)O)cc1 (stereo not shown) [Example 10, 4-(1-Hydroxy-2-methylpropyl)-1-[(2'-oxalobiphenyl-4-yl)-methyl]-2-propylimidazole-5-carboxamide]
0.017 | CCCc1nc(C(O)C(C)(C)C)c(C(N)=O)n1Cc1ccc(-c2ccccc2C(=O)C(=O)O)cc1 (stereo not shown) [Example 11, 4-(1-Hydroxy-2,2-dimethylpropyl)-1-[(2'-oxalobiphenyl-4-yl)methyl]-2-propylimidazole-5-carboxamide]
0.042 | CCCCc1nc(C(O)C(C)C)c(C(N)=O)n1Cc1ccc(-c2ccccc2C(=O)C(=O)O)cc1 (stereo not shown) [Example 12, 2-Butyl-4-(1-hydroxy-2-methylpropyl)-1-[(2'-oxalobiphenyl-4-yl)methyl]imidazole-5-carboxamide]
0.048 | CCCCc1nc(C(O)C(C)(C)C)c(C(N)=O)n1Cc1ccc(-c2ccccc2C(=O)C(=O)O)cc1 (stereo not shown) [Example 13, 2-Butyl-4-(1-hydroxy-2,2-dimethylpropyl)-1-[(2'-oxalobiphenyl-4-yl)methyl]imidazole-5-carboxamide]
0.0096 | CCOCc1nc(C(C)(C)O)c(C(=O)O)n1Cc1ccc(-c2ccccc2C(=O)C(=O)O)cc1 [Example 14, 2-Ethoxymethyl-4-(1-hydroxy-1-methylethyl)-1-[(2'-oxalobiphenyl-4-yl)methyl]imidazole-5-carboxylic acid]
0.024 | CCc1nc2c(C)cc(C)nc2n1Cc1ccc(-c2ccccc2C(=O)C(=O)O)cc1 [Example 16, 2-Ethyl-5,7-dimethyl-3-(2'-oxalobiphenyl-4-yl)methyl-3H-imidazo[4,5-b]pyridine]
0.026 | CCCc1nc(C(C)(C)O)c(C(=O)O)n1Cc1ccc(-c2ccccc2C(=O)c2nnn[nH]2)cc1 [Example 20, 4-(1-Hydroxy-1-methylethyl)-1-{[2'-(tetrazol-5-ylcarbonyl)biphenyl-4-yl]methyl}-2-propylimidazole-5-carboxylic acid]
